What was measured:
Format in all cases: cell-based
[1] = test system: src-transformed rat-1 fibroblasts; assay: Cell growth of src-transformed rat-1 fibroblasts; conditions: up to 25 μM; FIG. 7 Panel D
Protocol: (§1) To examine the effects of farnesyltransferase inhibition on cell growth, three cell lines (ras-transformed rat-1, src-transformed rat-1, and parental rat-1 cells) were seeded (see FIG. 7) at low density and allowed to grow for 10 days in the absence or presence of increasing concentrations of BZA-5B (compound 37). See Example 128 for description of cells. On day 0, cells were plated in monolayer culture at 2×10^3 cells per well (24-well plates) in 1 ml DMEM supplemented with 10% fetal calf serum, 100 U/ml penicillin, 100 μg/ml streptomycin, 0.5 mM DTT, 0.025% DMSO, and the indicated concentration of BZA-5B (compound 37). On days 3 and 7, cells were washed and refed with the same medium. At the time indicated in FIG. 7, cells were harvested by trypsinization and counted in a Coulter counter. Panels A, C, E show the growth rate of each cell line in the absence of inhibitor. Panels B, D, F show the inhibition of growth as a function of concentration of BZA-5B at each time point. The "100% values" correspond to the appropriate cell numbers in Panels A, C, E at the indicated time. Each value represents a single incubation. As shown in the panels A, C, and E, all three cell lines grew logarithmically with no added inhibitor. […] The growth of src-transformed (Panel D) and untransformed cells (Panel F) were not affected at concentrations of BZA-5B up to 25 μM.

[2] = test system: untransformed parental rat-1 fibroblasts; assay: Cell growth of untransformed parental rat-1 fibroblasts; conditions: up to 25 μM; FIG. 7 Panel F
Protocol: as §1

[3] = test system: ras-transformed rat-1 fibroblasts; assay: Cell growth of ras-transformed rat-1 fibroblasts; conditions: Fibroblast, 240 h, 10 days, FIG. 7 Panel B
Protocol: as §1

Compound: COC(=O)[C@H](CCSC)NC(=O)CN1C(=O)C(N(C)C(=O)[C@@H](N)CS)N=C(c2ccccc2)c2ccccc21 (stereo partly drawn) [BZA-5B]
- growth of src-transformed cells [1]: not affected
- growth of untransformed cells [2]: not affected
- inhibition at 25 µM [3]: ~90%

Source: patent publication US5843941A, “Ras farnesyl transferase inhibitors” (Genentech, Inc., priority 1994, dated 1998)
